Source: US7247712B2, “Complex of hepatitis B virus-specific antigenic peptides associated with heat shock proteins and the application thereof” (priority 2000, dated 2007)
“Also recorded” adds a separate entry of the source.

What was measured:
BALB/cJ mice (H-2d) = experiment: Immunization in mice followed by cytotoxicity (CTL) analysis, standard 4-h 51Cr release assay; type: in vivo
Protocol: FIG. 1. Specific CTL response of BALB/cJ(H-2^d) mice after immunized with 7-mer peptied and gp96-7 mer peptide complex seven days. The lysis percentage of effector cells to specific target cells was measurated in a standard 4-h ^51Cr release assay. The lysis percent rate of the figure is the mean percentage of 10 mice.
BALB/cJ mice (H-2^d) 12-16 weeks old were used in this studies.
Sample was solubilized in 100 μl PBS and was injected subcutaneously in the neck back area of each mouse.
Therefore, we adopted the immunological manner of subcutaneous injection. The 7-mer peptide was dissolved in buffer (90% PBS, 10% DMSO/0.1% TFA) and gp96-7 mer peptide complex was dissolved in PBS buffer and then shaked severely for 1 minute before injection. For each mouse, the immunization dosage of 7-mer peptide was 0.2 nmol, 2 nmol and 20 nmol, respectively, the mice were immunized with peptide and Freund's after emulsion. The immunization dosage of gp96-7 mer peptide complex was 0.01 nmol, 0.05 nmol, 0.10 nmol and 0.50 nmol, respectively, the mice were immunized with subcutaneous injection in neck back area, and the second enhanced immunization was performed after one week from the first immunization, then cytotoxicity analysis was performed after 7 days. Each treatment group consisted of 10 mice. […]

[1] = target: T1, gp96 protein purified from human liver tissues (human, UniProt P14625 22-803); experiment: non-covalently bound peptides eluted with TFA from gp96 purified from HBV-infected liver cancer tissues, HPLC peak, MALDI-TOF, microsequencing
T1 construct: Native protein from tissue, over 95% purity; also called purified gp96 protein
T1 sequence (P14625 22-803 limits assumed): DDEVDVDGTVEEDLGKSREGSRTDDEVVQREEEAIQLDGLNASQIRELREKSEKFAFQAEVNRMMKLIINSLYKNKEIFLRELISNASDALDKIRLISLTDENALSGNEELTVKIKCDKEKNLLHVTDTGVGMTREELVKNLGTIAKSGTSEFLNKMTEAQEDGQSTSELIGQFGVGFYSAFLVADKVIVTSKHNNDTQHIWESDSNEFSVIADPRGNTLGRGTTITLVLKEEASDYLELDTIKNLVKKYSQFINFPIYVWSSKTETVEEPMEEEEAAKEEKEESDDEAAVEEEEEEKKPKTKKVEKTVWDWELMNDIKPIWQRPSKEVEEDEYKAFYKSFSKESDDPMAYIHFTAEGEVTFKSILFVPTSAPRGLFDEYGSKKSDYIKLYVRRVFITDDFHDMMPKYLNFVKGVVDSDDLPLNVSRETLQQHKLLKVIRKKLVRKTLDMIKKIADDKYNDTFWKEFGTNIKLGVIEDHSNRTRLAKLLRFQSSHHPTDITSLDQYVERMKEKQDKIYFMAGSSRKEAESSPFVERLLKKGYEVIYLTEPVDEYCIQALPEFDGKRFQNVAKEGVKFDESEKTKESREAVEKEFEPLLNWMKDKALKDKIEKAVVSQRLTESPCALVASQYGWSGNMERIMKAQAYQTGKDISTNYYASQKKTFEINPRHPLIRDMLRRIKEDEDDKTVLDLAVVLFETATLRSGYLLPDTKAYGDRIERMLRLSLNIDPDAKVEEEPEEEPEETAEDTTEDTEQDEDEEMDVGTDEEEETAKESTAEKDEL

## YVNTNMG [7-mer peptide, 7-mer peptide “YVNTNMG or YVNVNMG”, amino acid residues 88-94 of the core protein of HBV]
BALB/cJ mice (H-2d); Freund's incomplete adjuvant, Freund's complete adjuvant, chromium alum
  effect of adjuvant on immunogenicity: can improve the immunological activity of it significantly
BALB/cJ mice (H-2d); subcutaneous immunization, 51Cr release assay
  specific cytotoxic T lymphocyte (CTL) response in mice after immunization: can elicit the specific CTL response in mice; also recorded: can elicit the specific cytotoxic T lymphocytes in mice

B1: 7-mer peptide YVNTNMG (HBV core protein 88-94) (peptide)
peptide: YVNTNMG
notes: Eluted from tissue gp96 and also synthesized
[1]
  binding result: binds

B2: 7-mer peptide YVNVNMG (HBV core protein 88-94) (peptide)
peptide: YVNVNMG
notes: Printed as the alternative to YVNTNMG
[1]
  binding result: binds
